Nine molecules from paper PMC10178506, “Chemical and Biological Evaluation of Novel 1H-Chromeno[3,2-c]pyridine Derivatives as MAO Inhibitors Endowed with Potential Anticancer Activity” (International Journal of Molecular Sciences, 2023) can be followed below.

Each structure is given as a SMILES string.

What all share (experiment): biochemical
Assay [1] has as its target T1, human recombinant MAO A (Homo sapiens, UniProt P21397).
T1 construct: purchased Sigma Aldrich (Milan, Italy); host or cells: baculovirus-infected insect cells
T1 sequence (P21397 1-527): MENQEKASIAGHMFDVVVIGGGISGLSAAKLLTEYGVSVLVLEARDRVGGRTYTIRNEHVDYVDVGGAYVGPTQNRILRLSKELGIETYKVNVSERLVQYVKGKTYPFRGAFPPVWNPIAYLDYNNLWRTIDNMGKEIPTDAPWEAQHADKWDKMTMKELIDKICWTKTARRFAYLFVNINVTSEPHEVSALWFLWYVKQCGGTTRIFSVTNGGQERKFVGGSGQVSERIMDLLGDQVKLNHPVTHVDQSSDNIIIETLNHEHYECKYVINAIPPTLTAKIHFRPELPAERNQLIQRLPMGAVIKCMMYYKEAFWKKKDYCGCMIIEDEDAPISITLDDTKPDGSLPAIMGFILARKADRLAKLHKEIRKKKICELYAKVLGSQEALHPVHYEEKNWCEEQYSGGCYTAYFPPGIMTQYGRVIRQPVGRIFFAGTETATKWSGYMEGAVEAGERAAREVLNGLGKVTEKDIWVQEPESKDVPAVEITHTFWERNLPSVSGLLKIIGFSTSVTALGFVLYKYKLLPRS
Type of assay: biochemical. Conditions: read-out: hMAO-A % inhibition at 10 μM. On the procedure: (§1) Human isoforms of MAOs (from baculovirus-infected insect cells) and ChEs (human recombinant AChE and BChE from human serum), purchased from Sigma Aldrich (Milan, Italy), were used for inhibition assays. Experiments were performed in 96-well plates (Greiner Bio-One, Kremsmünster, Austria) on the Infinite M1000 Pro plate reader (Tecan, Cernusco s.N., Italy), using already published protocols.
After the addition of human recombinant MAO A (250 U/mg) or MAO B (59 U/mg) and a further 30 min of incubation, NaOH was added, and the fluorescence read at 310/400 nm excitation/emission wavelength. […] IC50 is expressed as mean ± SD of three independent measurements, each one performed in duplicate. For the kinetic study on the inhibition mechanism of MAO B, three diverse scalar concentrations of the inhibitor and seven concentrations of kynuramine were used.
(§2) The IC50 values, Michaelis–Menten curve fitting and inhibition constant (Ki) were calculated by nonlinear regression, using Prism software.

The target of assay [2] is T2, human recombinant MAO B (Homo sapiens, UniProt P27338).
T2 construct: purchased Sigma Aldrich (Milan, Italy); host or cells: baculovirus-infected insect cells
T2 sequence (P27338 1-520): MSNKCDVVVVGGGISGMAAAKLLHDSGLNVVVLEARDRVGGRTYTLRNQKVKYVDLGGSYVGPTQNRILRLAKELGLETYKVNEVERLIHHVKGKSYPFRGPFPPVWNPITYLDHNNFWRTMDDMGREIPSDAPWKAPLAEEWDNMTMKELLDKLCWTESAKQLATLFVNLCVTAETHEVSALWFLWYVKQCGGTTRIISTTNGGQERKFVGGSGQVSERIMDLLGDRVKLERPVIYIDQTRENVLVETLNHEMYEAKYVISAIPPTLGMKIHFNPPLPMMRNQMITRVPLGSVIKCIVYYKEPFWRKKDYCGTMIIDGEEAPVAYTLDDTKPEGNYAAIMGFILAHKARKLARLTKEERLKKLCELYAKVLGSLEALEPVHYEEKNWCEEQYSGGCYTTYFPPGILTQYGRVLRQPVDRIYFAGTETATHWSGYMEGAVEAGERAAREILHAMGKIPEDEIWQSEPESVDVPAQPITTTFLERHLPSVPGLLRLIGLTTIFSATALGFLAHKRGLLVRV
It counts as biochemical. Conditions: for inhibition at 10 µM: read-out: hMAO-B % inhibition at 10 μM.

For assay [3], the target named is T3, BChE from human serum (Homo sapiens, UniProt P06276).
T3 construct: ChEs (human recombinant AChE and BChE from human serum), purchased from Sigma Aldrich (Milan, Italy); purchased Sigma Aldrich (Milan, Italy); host or cells: human serum (natural source)
T3 sequence (P06276 29-602): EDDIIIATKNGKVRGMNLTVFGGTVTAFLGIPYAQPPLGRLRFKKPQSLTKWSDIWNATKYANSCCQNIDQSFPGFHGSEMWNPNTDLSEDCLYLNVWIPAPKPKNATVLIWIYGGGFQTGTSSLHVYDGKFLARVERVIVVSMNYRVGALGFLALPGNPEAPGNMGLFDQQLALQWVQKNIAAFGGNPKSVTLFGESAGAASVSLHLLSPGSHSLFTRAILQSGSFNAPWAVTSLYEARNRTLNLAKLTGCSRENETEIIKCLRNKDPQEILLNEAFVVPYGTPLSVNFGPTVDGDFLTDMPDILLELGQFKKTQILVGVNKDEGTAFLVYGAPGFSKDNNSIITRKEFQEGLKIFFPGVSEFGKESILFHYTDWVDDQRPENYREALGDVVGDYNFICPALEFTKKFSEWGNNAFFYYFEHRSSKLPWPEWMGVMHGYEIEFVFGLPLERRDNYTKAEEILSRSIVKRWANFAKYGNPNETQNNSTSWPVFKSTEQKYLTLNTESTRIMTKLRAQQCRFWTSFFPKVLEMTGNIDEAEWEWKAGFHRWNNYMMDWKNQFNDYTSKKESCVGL
The following applies: for hBChE % inhibition at 10 μM / inhibition at 10 µM: 10 μM concentration, mean ± S.D. (n = 3), n.i. = no inhibition at 10 μM; for inhibition at 10 µM: read-out: hBChE % inhibition at 10 μM. The protocol:
as §1
(§3) The inhibition of human recombinant AChE or BChE from human serum was determined by applying Ellman’s spectrophotometric method as described in previously reported protocols. The AChE activity was determined in an assay solution containing AChE (0.09 U/mL), 5,5′-dithiobis(2-nitrobenzoic acid) (i.e., the Ellman’s reagent, 0.33 mM), the test compound (10 μM concentration, or seven scalar concentrations for compounds achieving > 60% enzyme inhibition at 10 μM), in 0.1 M PBS pH 8.0. […] The BChE inhibitory activity was similarly determined by using BChE (0.09 U/mL) and butyrylthiocholine iodide (5 μM) as the substrate.
as §2

The target in assay [4] is T4, human recombinant AChE (Homo sapiens, UniProt P22303).
T4 construct: purchased Sigma Aldrich (Milan, Italy)
T4 sequence (P22303 32-614): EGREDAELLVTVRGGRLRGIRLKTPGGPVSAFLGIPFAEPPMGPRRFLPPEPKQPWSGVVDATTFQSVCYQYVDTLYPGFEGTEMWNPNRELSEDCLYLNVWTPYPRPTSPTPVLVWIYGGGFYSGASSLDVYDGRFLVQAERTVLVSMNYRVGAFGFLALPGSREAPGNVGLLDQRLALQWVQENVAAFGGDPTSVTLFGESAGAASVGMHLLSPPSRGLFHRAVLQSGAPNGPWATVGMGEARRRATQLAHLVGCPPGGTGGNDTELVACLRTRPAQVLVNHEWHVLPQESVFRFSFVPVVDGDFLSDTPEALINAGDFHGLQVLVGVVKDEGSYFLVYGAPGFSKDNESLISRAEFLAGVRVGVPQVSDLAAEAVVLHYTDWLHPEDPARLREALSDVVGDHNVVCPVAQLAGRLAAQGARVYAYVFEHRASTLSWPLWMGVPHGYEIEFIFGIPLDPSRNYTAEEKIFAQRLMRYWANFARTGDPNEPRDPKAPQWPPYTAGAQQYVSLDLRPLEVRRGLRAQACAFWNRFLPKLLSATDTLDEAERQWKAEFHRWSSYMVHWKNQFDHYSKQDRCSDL
Conditions: for inhibition at 10 µM: read-out: hAChE % inhibition at 10 μM. The protocol: as §1, §3, §2

Usually inhibition stands for the relative decrease from the control value, in per cent. By IC50 is commonly meant the concentration that inhibits the measured activity by half.

With `CN1CC[C@@]2(O)Oc3ccccc3[C@@H](O)[C@H]2C1` (relative stereo) [7a, (4aR*,10S*,10aR*)-2-Methyl-1,2,3,4,10,10a-hexahydro-4aH-chromeno[3,2-c]pyridine-4a,10-diol], the inhibition at 10 µM is 14% in assay [1], 22% in assay [2] and 24% in assay [4]. In addition, the “hBChE % inhibition at 10 μM” value in assay [3] was “n.i”.
`CN1CC[C@@]2(O)Oc3ccc(Br)cc3[C@@H](O)[C@H]2C1` (relative stereo) [7c, (4aR*,10S*,10aR*)-8-Bromo-2-methyl-1,2,3,4,10,10a-hexahydro-4aH-chromeno[3,2-c]pyridine-4a,10-diol]: the inhibition at 10 µM was 21% in assay [1], 35% in assay [2] and 12% in assay [3]. In addition, in assay [4], the “hAChE % inhibition at 10 μM” value was “n.i”.
Turning to `CCOc1cccc2c1O[C@]1(O)CCN(C)C[C@@H]1[C@@H]2O` (relative stereo) [7e, (4aR*,10S*,10aR*)-6-Ethoxy-2-methyl-1,2,3,4,10,10a-hexahydro-4aH-chromeno[3,2-c]pyridine-4a,10-diol], the inhibition at 10 µM in assay [1] came to 19%; in assay [2] it was 25%. In addition, in assay [3], the “hBChE % inhibition at 10 μM” value was “n.i”. Moreover, the “hAChE % inhibition at 10 μM” value in assay [4] is on record as “n.i”.
In the case of `CN1CC[C@@]2(O)Oc3ccccc3[C@@H](O)[C@@H]2C1` (relative stereo) [8a, (4aR*,10S*,10aS*)-2-Methyl-1,2,3,4,10,10a-hexahydro-4aH-chromeno[3,2-c]pyridine-4a,10-diol], the inhibition at 10 µM in assay [1] was 8%; in assay [2] it was 42%; in assay [4], 22%. Further, the “hBChE % inhibition at 10 μM” value in assay [3] is listed as “n.i”.
Consider `CN1CC[C@@]2(O)Oc3ccc(Br)cc3[C@@H](O)[C@@H]2C1` (relative stereo) [8c, (4aR*,10S*,10aS*)-8-Bromo-2-methyl-1,2,3,4,10,10a-hexahydro-4aH-chromeno[3,2-c]pyridine-4a,10-diol], for which the inhibition at 10 µM in assay [1] worked out at 14%; in assay [2] it was 15%; in assay [4], 45%. Besides, the “hBChE % inhibition at 10 μM” value in assay [3] is recorded as “n.i”.
For the molecule `O[C@@H]1c2ccccc2O[C@]2(O)CCN(Cc3ccccc3)C[C@@H]12` (relative stereo) [8e, (4aR*,10S*,10aS*)-2-Benzyl-1,2,3,4,10,10a-hexahydro-4aH-chromeno[3,2-c]pyridine-4a,10-diol], the inhibition at 10 µM is 12% in assay [1], 41% in assay [2], 19% in assay [3] and 25% in assay [4].
In the case of `CN1CCc2oc3ccccc3c(=O)c2C1` [1a, 1,2,3,4-tetrahydro-2-methylchromeno[3,2-c]pyridin-10-one], the inhibition at 10 µM in assay [1] amounted to 15%; in assay [2] it was 29%; in assay [4] it was 34%. Moreover, the “hBChE % inhibition at 10 μM” value in assay [3] is “n.i”.
`CN1C=Cc2oc3ccccc3c(=O)c2C1C#Cc1ccccc1` (stereo not shown) [3a, 2-Methyl-1-(phenylethinyl)-1H-chromeno[3,2-c]pyridine-10(2H)-one]: in assay [1], the inhibition at 10 µM amounted to 35%. Also, the “MAO B/A selectivity” value in assay [2] (from MAO B and MAO A inhibition data) was “more than twentyfold”. Besides, the IC50 in assay [2] (hMAO-B IC50, mean ± S.D., determined for compounds with more than 60% inhibition at 10 μM) was 0.51 ± 0.021 µM; in assay [3] (mean ± S.D., determined for compounds with more than 60% inhibition at 10 μM, read-out: hBChE IC50), 8.42 ± 0.25 µM; in assay [4] (mean ± S.D., determined for compounds with more than 60% inhibition at 10 μM, read-out: hAChE IC50), 6.79 ± 0.42 µM.
On to `CCOc1cccc2c(=O)c3c(oc12)C=CN(C(C)C)C3C#Cc1ccccc1` (stereo not shown) [3d, 6-Ethoxy-2-isopropyl-1-(phenylethynyl)-1,2-dihydro-10H-chromeno[3,2-c]pyridin-10-one], for which the inhibition at 10 µM turned out to be 36% in assay [1], 22% in assay [2] and 10% in assay [3]. Further, the “hAChE % inhibition at 10 μM” value in assay [4] is listed as “n.i”.
